# Measured values taken from ChEMBL document CHEMBL1201862, “PubChem BioAssay data set” (2004).
#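 1) Cells in 96-well plates. 2) Compound, 48 h, 5 concentrations. 3) Linear interpolation between surrounding doses. 4) Unreached endpoint = highest concentration. GI50 is the concentration that inhibits growth by half.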 The source made the active and inactive calls. No stated cut-off is given here; in the data, active = GI50 up to about 1.1 µM and inactive = higher.
# Legend:
# Test in all cases: NCI-60 cell line screen, 48 h
# [1] = system: MDA-N
# [2] = system: OVCAR-4
# [3] = system: CAKI-1
# [4] = system: A549
# [5] = system: MDA-MB-435
# [6] = system: HCT-15
# [7] = system: COLO 205
# [8] = system: CCRF-CEM
# [9] = system: UACC-62
# [10] = system: RXF 393
# [11] = system: HOP-62
# [12] = system: UO-31
# [13] = system: SK-MEL-5
# [14] = system: EKVX
# [15] = system: Hs-578T
# [16] = system: SNB-75
# [17] = system: KM12
# [18] = system: IGROV-1
# [19] = system: MDA-MB-231
# [20] = system: SK-MEL-2
# [21] = system: NCI-H522
# [22] = system: NCI-H226
# [23] = system: HCC 2998
# [24] = system: M14
# [25] = system: SF-295
# [26] = system: MOLT-4
# [27] = system: HCT-116
# [28] = system: OVCAR-3
# [29] = system: OVCAR-8
# [30] = system: OVCAR-5
# [31] = system: PC-3
# [32] = system: SNB-19
# [33] = system: SN12C
# [34] = system: SF-539
# [35] = system: SW-620
# [36] = system: DU-145
# [37] = system: NCI/ADR-RES
# [38] = system: RPMI-8226
# [39] = system: 786-0
# [40] = system: SK-MEL-28
# [41] = system: Malme-3M
# [42] = system: SF-268
# [43] = system: NCI-H460
# [44] = system: HL-60
# [45] = system: UACC-257
# [46] = system: K562
# [47] = system: BT-549
# [48] = system: U-251
# [49] = system: TK-10
# [50] = system: ACHN
# [51] = system: MCF7
# [52] = system: T47D
# [53] = system: A498
# [54] = system: LOX IMVI
# [55] = system: HT-29
# [56] = system: NCI-H23
# [57] = system: SK-OV-3
# [58] = system: SR
# [59] = system: HOP-92
smiles,measurement,setting,value
Cc1cc(S(=O)(=O)Nc2nc(N)n(C)n2)c(S)cc1Cl,GI50,[1],> 10 µM (inactive)
same,GI50,[2],> 10 µM (inactive)
same,GI50,[3],> 10 µM (inactive)
same,GI50,[4],> 10 µM (inactive)
same,GI50,[5],> 10 µM (inactive)
same,GI50,[6],> 10 µM
same,GI50,[7],> 10 µM (inactive)
same,GI50,[8],> 10 µM (inactive)
same,GI50,[9],> 10 µM (inactive)
same,GI50,[10],> 10 µM (inactive)
same,GI50,[11],> 10 µM (inactive)
same,GI50,[12],> 10 µM (inactive)
same,GI50,[13],> 10 µM (inactive)
same,GI50,[14],> 10 µM (inactive)
same,GI50,[15],> 10 µM (inactive)
same,GI50,[16],> 10 µM (inactive)
same,GI50,[17],> 10 µM (inactive)
same,GI50,[18],> 10 µM (inactive)
same,GI50,[19],> 10 µM (inactive)
same,GI50,[20],> 10 µM (inactive)
same,GI50,[21],> 10 µM (inactive)
same,GI50,[22],> 10 µM (inactive)
same,GI50,[23],> 10 µM (inactive)
same,GI50,[24],> 10 µM (inactive)
same,GI50,[25],> 10 µM (inactive)
same,GI50,[26],> 10 µM (inactive)
same,GI50,[27],> 10 µM (inactive)
same,GI50,[28],> 10 µM (inactive)
same,GI50,[29],> 10 µM (inactive)
same,GI50,[30],> 10 µM (inactive)
same,GI50,[31],> 10 µM (inactive)
same,GI50,[32],> 10 µM (inactive)
same,GI50,[33],> 10 µM (inactive)
same,GI50,[34],> 10 µM (inactive)
same,GI50,[35],> 10 µM (inactive)
same,GI50,[36],> 10 µM (inactive)
same,GI50,[37],> 10 µM (inactive)
same,GI50,[38],> 10 µM (inactive)
same,GI50,[39],> 10 µM (inactive)
same,GI50,[40],> 10 µM (inactive)
same,GI50,[41],> 10 µM (inactive)
same,GI50,[42],> 10 µM (inactive)
same,GI50,[43],> 10 µM (inactive)
same,GI50,[44],> 10 µM (inactive)
same,GI50,[45],> 10 µM (inactive)
same,GI50,[46],> 10 µM (inactive)
same,GI50,[47],> 10 µM (inactive)
same,GI50,[48],> 10 µM (inactive)
same,GI50,[49],> 10 µM (inactive)
same,GI50,[50],> 10 µM (inactive)
same,GI50,[51],> 10 µM (inactive)
same,GI50,[52],> 10 µM (inactive)
same,GI50,[53],> 10 µM (inactive)
same,GI50,[54],> 10 µM (inactive)
same,GI50,[55],> 10 µM (inactive)
same,GI50,[56],> 10 µM (inactive)
same,GI50,[57],> 10 µM (inactive)
COc1ccc(C[C@H]2COC(=O)[C@@H]2Cc2ccc(Br)cc2)cc1OC,GI50,[1],27.7 µM (inactive)
same,GI50,[2],19.7 µM (inactive)
same,GI50,[3],34 µM (inactive)
same,GI50,[4],20 µM (inactive)
same,GI50,[5],19.5 µM (inactive)
same,GI50,[6],17.3 µM
same,GI50,[7],21.2 µM (inactive)
same,GI50,[8],18.9 µM (inactive)
same,GI50,[9],27.8 µM (inactive)
same,GI50,[10],20 µM (inactive)
same,GI50,[11],33.6 µM (inactive)
same,GI50,[12],6.18 µM (inactive)
same,GI50,[13],5.06 µM (inactive)
same,GI50,[14],7.19 µM (inactive)
same,GI50,[15],26.5 µM (inactive)
same,GI50,[16],23.3 µM (inactive)
same,GI50,[17],21.9 µM (inactive)
same,GI50,[18],16.1 µM (inactive)
same,GI50,[19],24 µM (inactive)
same,GI50,[20],19.9 µM (inactive)
same,GI50,[21],13.7 µM (inactive)
same,GI50,[22],28.8 µM (inactive)
same,GI50,[23],28.3 µM (inactive)
same,GI50,[24],33.3 µM (inactive)
same,GI50,[25],14.5 µM (inactive)
same,GI50,[26],13 µM (inactive)
same,GI50,[27],19.1 µM (inactive)
same,GI50,[28],15.2 µM (inactive)
same,GI50,[29],30.7 µM (inactive)
same,GI50,[30],23.4 µM (inactive)
same,GI50,[31],15.6 µM (inactive)
same,GI50,[32],26.9 µM (inactive)
same,GI50,[33],29.7 µM (inactive)
same,GI50,[34],38.2 µM (inactive)
same,GI50,[58],20.7 µM (inactive)
same,GI50,[35],44.7 µM (inactive)
same,GI50,[36],16.8 µM (inactive)
same,GI50,[37],10.7 µM (inactive)
same,GI50,[38],17.9 µM (inactive)
same,GI50,[39],38 µM (inactive)
same,GI50,[40],42.2 µM (inactive)
same,GI50,[41],25.4 µM (inactive)
same,GI50,[42],20.1 µM (inactive)
same,GI50,[43],33.4 µM (inactive)
same,GI50,[44],20.4 µM (inactive)
same,GI50,[45],11.5 µM (inactive)
same,GI50,[46],11.7 µM (inactive)
same,GI50,[47],17.5 µM (inactive)
same,GI50,[48],35 µM (inactive)
same,GI50,[49],28.6 µM (inactive)
same,GI50,[50],15.1 µM (inactive)
same,GI50,[51],16.6 µM (inactive)
same,GI50,[52],6.08 µM (inactive)
same,GI50,[54],11.2 µM (inactive)
same,GI50,[55],30.4 µM (inactive)
same,GI50,[59],20.2 µM (inactive)
same,GI50,[56],9.06 µM (inactive)
same,GI50,[57],22 µM (inactive)
COc1cc(CN2CCCCC2)cc2cc(C(=O)O)c(=O)oc12,GI50,[1],> 100 µM (inactive)
same,GI50,[2],> 100 µM (inactive)
same,GI50,[3],> 100 µM (inactive)
same,GI50,[4],> 100 µM (inactive)
same,GI50,[5],> 100 µM (inactive)
same,GI50,[6],> 100 µM
same,GI50,[7],> 100 µM (inactive)
same,GI50,[8],> 100 µM (inactive)
same,GI50,[9],> 100 µM (inactive)
same,GI50,[10],> 100 µM (inactive)
same,GI50,[11],> 100 µM (inactive)
same,GI50,[12],> 100 µM (inactive)
same,GI50,[13],> 100 µM (inactive)
same,GI50,[14],> 100 µM (inactive)
same,GI50,[15],> 100 µM (inactive)
same,GI50,[16],> 100 µM (inactive)
same,GI50,[17],> 100 µM (inactive)
same,GI50,[18],> 100 µM (inactive)
same,GI50,[19],> 100 µM (inactive)
same,GI50,[20],> 100 µM (inactive)
same,GI50,[21],> 100 µM (inactive)
same,GI50,[22],> 100 µM (inactive)
same,GI50,[23],> 100 µM (inactive)
same,GI50,[24],> 100 µM (inactive)
same,GI50,[25],> 100 µM (inactive)
same,GI50,[26],> 100 µM (inactive)
same,GI50,[27],> 100 µM (inactive)
same,GI50,[28],> 100 µM (inactive)
same,GI50,[29],> 100 µM (inactive)
same,GI50,[30],> 100 µM (inactive)
same,GI50,[31],> 100 µM (inactive)
same,GI50,[32],> 100 µM (inactive)
same,GI50,[33],> 100 µM (inactive)
same,GI50,[34],> 100 µM (inactive)
same,GI50,[35],> 100 µM (inactive)
same,GI50,[36],> 100 µM (inactive)
same,GI50,[37],> 100 µM (inactive)
same,GI50,[38],> 100 µM (inactive)
same,GI50,[39],> 100 µM (inactive)
same,GI50,[40],> 100 µM (inactive)
same,GI50,[41],> 100 µM (inactive)
same,GI50,[42],> 100 µM (inactive)
same,GI50,[43],> 100 µM (inactive)
same,GI50,[44],> 100 µM (inactive)
same,GI50,[45],> 100 µM (inactive)
same,GI50,[46],> 100 µM (inactive)
same,GI50,[47],> 100 µM (inactive)
same,GI50,[48],> 100 µM (inactive)
same,GI50,[49],> 100 µM (inactive)
same,GI50,[50],> 100 µM (inactive)
same,GI50,[51],> 100 µM (inactive)
same,GI50,[52],> 70.1 µM (inactive)
same,GI50,[53],> 100 µM (inactive)
same,GI50,[54],> 100 µM (inactive)
same,GI50,[55],> 100 µM (inactive)
same,GI50,[59],> 100 µM (inactive)
same,GI50,[56],> 100 µM (inactive)
same,GI50,[57],> 100 µM (inactive)
